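Results reflect a 48-hour exposure of cells in 96-well plates to compound at five concentrations. The concentration for 50% growth inhibition is given as GI50.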 Activity calls are given as the source filed them. Rule as the data show it: active = GI50 up to about 1.1 µM and inactive = higher.
Columns and labels:
Experiment in all cases: growth of human tumour cells (NCI), 48 h
HOP-92 = test system: HOP-92
BT-549 = test system: BT-549
LOX IMVI = test system: LOX IMVI
UO-31 = test system: UO-31
Hs-578T = test system: Hs-578T
ACHN = test system: ACHN
NCI-H226 = test system: NCI-H226
HT-29 = test system: HT-29
M14 = test system: M14
HCC 2998 = test system: HCC 2998
SW-620 = test system: SW-620
HCT-15 = test system: HCT-15
TK-10 = test system: TK-10
SN12C = test system: SN12C
NCI/ADR-RES = test system: NCI/ADR-RES
SK-MEL-28 = test system: SK-MEL-28
SK-MEL-5 = test system: SK-MEL-5
OVCAR-8 = test system: OVCAR-8
SNB-75 = test system: SNB-75
PC-3 = test system: PC-3
SNB-19 = test system: SNB-19
DU-145 = test system: DU-145
RXF 393 = test system: RXF 393
A498 = test system: A498
HCT-116 = test system: HCT-116
OVCAR-5 = test system: OVCAR-5
A549 = test system: A549
MCF7 = test system: MCF7
SF-295 = test system: SF-295
U-251 = test system: U-251
MOLT-4 = test system: MOLT-4
MDA-MB-435 = test system: MDA-MB-435
RPMI-8226 = test system: RPMI-8226
K562 = test system: K562
SK-OV-3 = test system: SK-OV-3
EKVX = test system: EKVX
OVCAR-3 = test system: OVCAR-3
CCRF-CEM = test system: CCRF-CEM
CAKI-1 = test system: CAKI-1
MDA-MB-231 = test system: MDA-MB-231
KM12 = test system: KM12
Malme-3M = test system: Malme-3M
NCI-H23 = test system: NCI-H23
SF-268 = test system: SF-268
HOP-62 = test system: HOP-62
UACC-257 = test system: UACC-257
NCI-H460 = test system: NCI-H460
UACC-62 = test system: UACC-62
MDA-N = test system: MDA-N
T47D = test system: T47D
COLO 205 = test system: COLO 205
IGROV-1 = test system: IGROV-1
SK-MEL-2 = test system: SK-MEL-2
SR = test system: SR
OVCAR-4 = test system: OVCAR-4
786-0 = test system: 786-0
NCI-H522 = test system: NCI-H522
SF-539 = test system: SF-539

Measured: GI50

C/N=c1\sc2c(n1C)C(=O)c1ccccc1C2=O
active: MDA-MB-435 0.192 µM | Malme-3M 0.331 µM | NCI-H23 0.566 µM | MDA-N 0.222 µM
2.03 µM: HCT-15
inactive: HOP-92 10.3 µM | BT-549 1.76 µM | LOX IMVI 1.27 µM | UO-31 7.45 µM | Hs-578T 2.39 µM | ACHN 5.81 µM | NCI-H226 2.34 µM | HT-29 3.04 µM | M14 1.5 µM | HCC 2998 7.73 µM | SW-620 2.09 µM | TK-10 14.6 µM | SN12C 1.64 µM | NCI/ADR-RES 3.95 µM | SK-MEL-28 1.96 µM | SK-MEL-5 1.27 µM | OVCAR-8 3.2 µM | SNB-75 2.06 µM | PC-3 3.96 µM | SNB-19 3.4 µM | DU-145 1.66 µM | RXF 393 3.08 µM | A498 15.7 µM | HCT-116 2.85 µM | OVCAR-5 3.99 µM | A549 1.93 µM | MCF7 1.65 µM | SF-295 1.54 µM | U-251 2.55 µM | MOLT-4 5.15 µM | RPMI-8226 4.14 µM | K562 3.37 µM | SK-OV-3 31.2 µM | EKVX 10.7 µM | OVCAR-3 3.44 µM | CCRF-CEM 4.15 µM | CAKI-1 8.41 µM | MDA-MB-231 12.2 µM | KM12 3.37 µM | SF-268 3.85 µM | HOP-62 1.76 µM | UACC-257 1.53 µM | NCI-H460 2.62 µM | UACC-62 2.11 µM | T47D 3.78 µM | COLO 205 5.3 µM | IGROV-1 6.78 µM | SK-MEL-2 2.08 µM | SR 3.75 µM | OVCAR-4 5.43 µM | 786-0 6.79 µM | NCI-H522 9.31 µM | SF-539 2.01 µM
